Experimental data from BigSolDB 2.1.

O=[PH](O)c1ccccc1
Settings	solubility (mole fraction)
in 2-ethoxyethanol, 288.15 K	0.124
in 2-ethoxyethanol, 293.85 K	0.136
in 2-ethoxyethanol, 298.25 K	0.148
in 2-ethoxyethanol, 303.45 K	0.165
in 2-ethoxyethanol, 313.15 K	0.205
in 2-ethoxyethanol, 318.25 K	0.227
in 2-ethoxyethanol, 323.65 K	0.239
in 2-ethoxyethanol, 328.25 K	0.259
in 2-ethoxyethanol, 333.45 K	0.283
in 2-ethoxyethanol, 338.35 K	0.308
in 2-ethoxyethanol, 343.25 K	0.344
in 2-ethoxyethanol, 348.25 K	0.372
in 2-ethoxyethanol, 353.25 K	0.397
in 2-ethoxyethanol, 358.55 K	0.434
in 2-ethoxyethanol, 363.15 K	0.459
in acetone, 293.35 K	0.0305
in acetone, 298.15 K	0.0448
in acetone, 303.55 K	0.0671
in acetone, 308.25 K	0.0879
in acetone, 313.45 K	0.124
in acetone, 318.25 K	0.186
in acetone, 323.35 K	0.256
in benzene, 299.15 K	0.054
in benzene, 303.65 K	0.0709
in benzene, 308.55 K	0.111
in benzene, 313.25 K	0.145
in benzene, 318.45 K	0.225
in benzene, 323.15 K	0.308
in benzene, 328.35 K	0.415
in benzene, 333.15 K	0.554
in chloroform, 293.15 K	0.134
in chloroform, 298.45 K	0.157
in chloroform, 303.25 K	0.186
in chloroform, 308.25 K	0.228
in chloroform, 313.15 K	0.269
in chloroform, 318.35 K	0.315
in chloroform, 323.25 K	0.357
in dichloromethane, 288.15 K	0.0292
in dichloromethane, 293.35 K	0.0386
in dichloromethane, 296.25 K	0.0458
in dichloromethane, 298.15 K	0.0528
in dichloromethane, 303.45 K	0.0709
in dichloromethane, 308.25 K	0.091
in ethanol, 283.25 K	0.0889
in ethanol, 288.65 K	0.112
in ethanol, 293.15 K	0.136
in ethanol, 298.35 K	0.168
in ethanol, 303.45 K	0.205
in ethanol, 308.25 K	0.245
in ethanol, 313.45 K	0.297
in ethanol, 318.55 K	0.356
in ethanol, 323.35 K	0.42
in ethyl acetate, 293.45 K	0.0144
in ethyl acetate, 298.15 K	0.0185
in ethyl acetate, 303.25 K	0.0275
in ethyl acetate, 313.45 K	0.0494
in ethyl acetate, 318.25 K	0.0661
in ethyl acetate, 328.35 K	0.107
in ethyl acetate, 333.25 K	0.136
in ethyl acetate, 338.55 K	0.174
in methanol, 293.55 K	0.173
in methanol, 298.15 K	0.215
in methanol, 303.75 K	0.28
in methanol, 308.35 K	0.344
in methanol, 313.45 K	0.429
in methanol, 318.25 K	0.526
in methanol, 323.65 K	0.655
in toluene, 293.15 K	0.0187
in toluene, 298.35 K	0.0282
in toluene, 303.45 K	0.0389
in toluene, 313.25 K	0.0652
in toluene, 318.15 K	0.0934
in toluene, 323.35 K	0.125
in toluene, 328.15 K	0.162
in toluene, 333.55 K	0.199
in toluene, 338.45 K	0.255
in toluene, 343.15 K	0.316
in toluene, 348.35 K	0.413
in water, 297.79 K	0.0095
in water, 300.25 K	0.0111
in water, 302.4 K	0.0129
in water, 305.22 K	0.0159
in water, 309.93 K	0.0218
in water, 312.84 K	0.0305
in water, 318.15 K	0.0433
in water, 323.35 K	0.0572
in water, 328.15 K	0.085
in water, 333.45 K	0.11
in water, 338.25 K	0.161
in water, 343.15 K	0.208
